Activity calls are given as the source filed them. No rule for the calls is given here. A value given as a limit tells only on which side of the number the result lay.

This experiment has as its system VEEV TC-83 infected cells, virus titer reduction. Nature of the experiment: secondary cell-based VEEV TC-83 titer reduction, set 3 of VEEV inhibitor project (AID 624286). The settings on record: at 5 µM; hits give low values.
Regarding `CN1CCN(Cc2nc3ccc([N+](=O)[O-])cc3c(=O)n2-c2ccccc2F)CC1`, the log virus titer change is less than -7.76. Next, `CCN1CCN(Cc2nc3ccc([N+](=O)[O-])cc3c(=O)n2-c2ccccc2)CC1`: less than -7.54; `CCN1CCN(Cc2nc3ccc([N+](=O)[O-])cc3c(=O)n2-c2cccc(F)c2)CC1`: less than -7.11; `O=c1c2cc([N+](=O)[O-])ccc2nc(CN2CCNCC2)n1-c1ccccc1F`: less than -7.76. For the compound `O=c1c2cc([N+](=O)[O-])ccc2nc(CN2CCNCC2)n1-c1ccccc1`, the log virus titer change was less than -7.76. Next, `O=c1c2cc([N+](=O)[O-])ccc2nc(CN2CCCCC2)n1-c1ccccc1F`: -0.366 (inactive). For the compound `CCN1CCN(Cc2nc3ccc([N+](=O)[O-])cc3c(=O)n2-c2ccc(F)cc2)CC1`, the log virus titer change was -5.88.

Regarding `CCN1CCN(Cc2nc3ccc(I)cc3c(=O)n2-c2ccccc2)CC1`, the log virus titer change was -0.33 (inactive).

These data come from PubChem BioAssay AID624286 (Southern Research Specialized Biocontainment Screening …, 2012).
